# Assays:
# [1] = tested on: Staphylococcus aureus (S. aureus) 11540 strain; experiment: Standard microdilution MIC assay, S. aureus; format: cell-based
# Method in brief: (§1)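 Broth microdilution per CLSI M7-A8 guidelines, with reference-strain quality control run in the same design; MIC determined per strain. Activity scored +/− against a 16 micrograms/mL cutoff.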
# [2] = tested on: Escherichia coli strain ATCC25922; experiment: Standard microdilution MIC assay, E. coli; format: cell-based
# Method in brief: as §1
Structure (SMILES),MIC [1] [µg/mL],MIC [2] [µg/mL]
CC(=N)NCC[C@@H]1CCC[C@@H](c2ccc(-n3cc4cc(-c5cc(CCC[C@@H](N)CC(N)=O)cc(Cl)c5F)[nH]c4nc3=O)cc2)N1 [Compound 156],≤ 16,≤ 16
C=C[C@H](NCCCNC(C)=N)c1ccc(-n2cc3cc(-c4cc(CCC[C@H](C)N)cc(Cl)c4F)[nH]c3nc2=O)cc1 [Compound 161],≤ 16,≤ 16
CC(=N)NC[C@@H]1CCC[C@@H](c2ccc(-n3cc4cc(-c5cc(CCC[C@H](C)N)cc(Cl)c5F)[nH]c4nc3=O)cc2)N1 [Compound 363],≤ 16,≤ 16
C=C[C@@H](N)CCCc1cc(Cl)c(F)c(-c2cc3cn(-c4ccc([C@H](C)NCCCNC(C)=N)c(F)c4)c(=O)nc3[nH]2)c1 [Compound 92],≤ 16,≤ 16
CSc1cc(-n2cc3cc(-c4cc(CCC[C@@H](N)C5CC5)cc(C(F)(F)F)c4)[nH]c3nc2=O)cc(F)c1[C@@H]1CCC[C@@H](CCNC(C)=N)N1 [Compound 286],≤ 16,≤ 16
CC(=N)NCC[C@@H]1CCC[C@@H](c2ccc(-n3cc4cc(-c5cc(CCC[C@@H](N)CN)cc(Cl)c5F)[nH]c4nc3=O)cc2)N1 [Compound 289],≤ 16,≤ 16
CC(=N)NCC[C@@H]1CCC[C@@H](c2ccc(-n3cc4cc(-c5cc(CCC[C@@H](N)C(F)(F)F)cc(Cl)c5F)[nH]c4nc3=O)cc2)N1 [Compound 63],≤ 16,≤ 16
C=C[C@@H](N)CCCc1cc(Cl)c(F)c(-c2cc3cn(-c4ccc([C@@H]5CCC[C@@H](CCNC(C)=N)N5)c(SC)c4)c(=O)nc3[nH]2)c1 [Compound 128],≤ 16,≤ 16
CC(=N)NCCCN[C@@H](C)c1ccc(-n2cc3cc(-c4cc(CCC[C@@H](N)CF)cc(Cl)c4F)[nH]c3nc2=O)cc1F [Compound 107],≤ 16,≤ 16
CC(=N)NCC[C@@H]1CCC[C@@H](c2ccc(-n3cc4cc(-c5cc(CCC[C@H](C)N)cc(Cl)c5F)[nH]c4nc3=O)cc2)N1CCc1cccnc1 [Compound 261],≤ 16,≤ 16
C=C[C@H](N)CCCc1cc(Cl)c(F)c(-c2cc3cn(-c4ccc(CN[C@@H](C=C)CCNC(C)=N)cc4)c(=O)nc3[nH]2)c1 [Compound 101],≤ 16,≤ 16
CC(=N)NCCCN[C@@H](CO)c1ccc(-n2cc3cc(-c4cc(CCC[C@H](C)N)cc(Cl)c4F)[nH]c3nc2=O)cc1 [Compound 132],≤ 16,≤ 16
CSc1cc(-n2cc3cc(-c4cc(CCC[C@@H](N)C5CC5)cc(Cl)c4F)[nH]c3nc2=O)ccc1[C@@H]1CCC[C@@H](CCNC(C)=N)N1CCCF [Compound 333],≤ 16,≤ 16
CC(=N)NCC[C@H](CO)N[C@@H](C)c1ccc(-n2cc3cc(-c4cc(CCC[C@@H](N)CF)cc(Cl)c4F)[nH]c3nc2=O)cc1F [Compound 178],≤ 16,≤ 16
C=C[C@H](N)CCCc1cc(Cl)c(F)c(-c2cc3cn(-c4ccc(CN[C@@H](CO)CCNC(C)=N)cc4)c(=O)nc3[nH]2)c1 [Compound 83],≤ 16,≤ 16
C[C@H](N)CCCc1cc(Cl)c(F)c(-c2cc3cn(-c4ccc(CNCCCNC(=N)CF)c(F)c4)c(=O)nc3[nH]2)c1 [Compound 77],≤ 16,≤ 16
C=CCN(CC[C@@H]1CCC[C@@H](c2ccc(-n3cc4cc(-c5cc(CCC[C@@H](N)CF)cc(Cl)c5F)[nH]c4nc3=O)cc2)N1C)C(C)=N [Compound 181],≤ 16,≤ 16
C=C[C@@H](N)CCCc1cc(Cl)c(F)c(-c2cc3cn(-c4ccc([C@@H]5CCC[C@@H](CCNC(C)=N)N5)c(F)c4)c(=O)nc3[nH]2)c1 [Compound 166],≤ 16,≤ 16
CC(C)(CN)CCc1cc(Cl)c(F)c(-c2cc3cn(-c4ccc([C@@H]5CCC[C@@H](CCNC(=N)CF)N5)cc4)c(=O)nc3[nH]2)c1 [Compound 25],≤ 16,≤ 16
COC[C@H](N)CCCc1cc(OC(F)(F)F)c(F)c(-c2cc3cn(-c4ccc([C@@H]5CCC[C@@H](CCNC(C)=N)N5)nc4)c(=O)nc3[nH]2)c1 [Compound 347],≤ 16,≤ 16
CC(=N)NCC[C@@H]1CCC[C@@H](c2ccc(-n3cc4cc(-c5cc(CCC[C@@H](N)C6CC6)cc(Cl)c5F)[nH]c4nc3=O)cc2F)N1CCCF [Compound 332],≤ 16,≤ 16
CC(C)(N)CCCc1cc(Cl)c(F)c(-c2cc3cn(-c4ccc([C@@H]5COC[C@@H](CCNC(=N)CF)N5)cc4)c(=O)nc3[nH]2)c1 [Compound 69],≤ 16,≤ 16
CSc1cc(-n2cc3cc(-c4cc(CCC[C@@H](N)CO)cc(Cl)c4F)[nH]c3nc2=O)ccc1[C@@H]1CCC[C@@H](CCNC(C)=N)N1 [Compound 116],≤ 16,≤ 16
C[C@H](N)CCCc1cc(Cl)c(F)c(-c2cc3cn(-c4ccc([C@H](C)NCCCNC(=N)CF)c(F)c4)c(=O)nc3[nH]2)c1 [Compound 94],≤ 16,≤ 16

Structure (SMILES),MIC [1] [µg/mL],MIC [2] [µg/mL]
N=C(CF)NCC[C@@H]1CCC[C@@H](c2ccc(-n3cc4cc(-c5cc(CCC[C@@H](N)C6CC6)cc(Cl)c5F)[nH]c4nc3=O)cc2)N1 [Compound 86],≤ 16,≤ 16
CC(=N)NCC[C@@H]1CCC[C@@H](c2ccc(-n3cc4cc(-c5cc(F)c(C(F)(F)F)c(CCC[C@H](C)N)c5)[nH]c4nc3=O)cc2)N1 [Compound 318],≤ 16,≤ 16
CC(=N)NCCCN[C@@H](C)c1ccc(-n2cc3cc(-c4cc(CCC[C@H](C)N)cc(Cl)c4F)[nH]c3nc2=O)cc1F [Compound 93],≤ 16,≤ 16
COc1cc(-n2cc3cc(-c4cc(CCC[C@@H](N)CF)cc(C(F)(F)F)c4F)[nH]c3nc2=O)ccc1[C@@H]1CCC[C@@H](CCNC(C)=N)N1 [Compound 237],≤ 16,≤ 16
CSc1cc(-n2cc3cc(-c4cc(CCC[C@H](C)N)cc(C(F)(F)F)c4)[nH]c3nc2=O)cc(F)c1[C@@H]1CCC[C@@H](CCNC(C)=N)N1CCCF [Compound 329],≤ 16,≤ 16
CC(=N)NCC[C@H](CO)NCc1ccc(-n2cc3cc(-c4cc(CCC[C@@H](N)C5CC5)cc(Cl)c4F)[nH]c3nc2=O)cc1 [Compound 79],≤ 16,≤ 16
C=C[C@H](CCNC(=N)CF)NCc1ccc(-n2cc3cc(-c4cc(CCC[C@@H](N)C(F)(F)F)cc(Cl)c4F)[nH]c3nc2=O)cc1 [Compound 44],≤ 16,> 16
CC(=N)NCC[C@@H]1CCC[C@@H](c2ccc(-n3cc4cc(-c5cc(CCC[C@H](C)NC(C)=N)cc(Cl)c5F)[nH]c4nc3=O)cc2)N1 [Compound 29],≤ 16,≤ 16
COCC(=N)NCC[C@@H]1CCC[C@@H](c2ccc(-n3cc4cc(-c5cc(CCC[C@H](C)N)cc(Cl)c5F)[nH]c4nc3=O)cc2)N1 [Compound 356],≤ 16,≤ 16
CC(=N)NCC[C@@H]1COC[C@@H](c2ccc(-n3cc4cc(-c5cc(CCC[C@@H](N)CO)cc(Cl)c5F)[nH]c4nc3=O)cc2)N1 [Compound 54],≤ 16,≤ 16
CC(=N)NCC[C@@H]1CCC[C@@H](c2ccc(-n3cc4cc(-c5cc(CCC[C@@H](N)CO)cc(OC(F)(F)F)c5F)[nH]c4nc3=O)cc2OC(F)(F)F)N1 [Compound 231],≤ 16,≤ 16
CC(=N)NCC[C@@H]1CCC[C@@H](c2ccc(-n3cc4cc(-c5cc(CCC[C@@H]6COCC(=O)N6)cc(Cl)c5F)[nH]c4nc3=O)cc2)N1 [Compound 227],≤ 16,≤ 16
C=C[C@H](N)CCCc1cc(Cl)c(F)c(-c2cc3cn(-c4ccc([C@H](C)NCCCNC(C)=N)c(F)c4)c(=O)nc3[nH]2)c1 [Compound 111],≤ 16,≤ 16
CC(=N)NCC[C@@H]1CCC[C@@H](c2ccc(-n3cc4cc(-c5cc(CCC[C@H](C)N)cc(Cl)c5F)[nH]c4nc3=O)cc2)N1CCF [Compound 364],≤ 16,≤ 16
C[C@H](N)CCCc1cc(Cl)c(F)c(-c2cc3cn(-c4ccc([C@@H]5CNC[C@H](CCNC(=N)CF)N5)cc4)c(=O)nc3[nH]2)c1 [Compound 49],≤ 16,≤ 16
C=C[C@@H](CCNC(C)=N)NCc1ccc(-n2cc3cc(-c4cc(CCC[C@@H](N)C5CC5)cc(Cl)c4F)[nH]c3nc2=O)cc1 [Compound 87],≤ 16,≤ 16
C=C[C@@H](CCNC(C)=N)NCc1ccc(-n2cc3cc(-c4cc(CCC[C@@H](N)COC)cc(Cl)c4F)[nH]c3nc2=O)cc1 [Compound 187],≤ 16,≤ 16
C=C[C@H](N)CCCc1cc(Cl)c(F)c(-c2cc3cn(-c4ccc([C@@H]5CCC[C@@H](CCNC(C)=N)N5)cc4)c(=O)nc3[nH]2)c1 [Compound 82],≤ 16,≤ 16
COC[C@H](N)CCCc1cc(-c2cc3cn(-c4ccc(CN[C@H](CCNC(C)=N)C5CC5)cc4)c(=O)nc3[nH]2)cc(C(F)(F)F)c1 [Compound 222],≤ 16,≤ 16
CSc1cc(-n2cc3cc(-c4cc(CCC[C@H](C)N)cc(Cl)c4F)[nH]c3nc2=O)ccc1[C@@H]1CCC[C@@H](CCNC(C)=N)N1 [Compound 115],≤ 16,≤ 16
C=C[C@@H](N)CCCc1cc(Cl)c(F)c(-c2cc3cn(-c4ccc(CN[C@@H](CO)CCNC(C)=N)cc4)c(=O)nc3[nH]2)c1 [Compound 39],≤ 16,≤ 16
CC(=N)NCC[C@@H]1CCC[C@@H](c2ccc(-n3cc4cc(-c5cc(CCC[C@@H](N)CF)cc(C(F)(F)F)c5)[nH]c4nc3=O)cc2)N1 [Compound 204],≤ 16,≤ 16
COC[C@@H](CCNC(C)=N)NCc1ccc(-n2cc3cc(-c4cc(CCC[C@H](C)N)cc(Cl)c4F)[nH]c3nc2=O)cc1 [Compound 189],≤ 16,≤ 16
C=C[C@@H](CCNC(=N)CC(F)(F)F)NCc1ccc(-n2cc3cc(-c4cc(CCC[C@H](C)N)cc(Cl)c4F)[nH]c3nc2=O)cc1 [Compound 58],≤ 16,≤ 16

# Source: patent US11999739B2, “Antimicrobials methods of making and using the same” (BIOVERSYS AG, priority 2016, dated 2024)
